Experimental data reported in patent US20040156869A1, “2-substituted quinazolin-4-ylamine analogues” (Neurogen Corporation, priority 2002, published 2004).
Where two headings read alike, the source gives them in different places.

Target: human capsaicin receptor (VR1) (Homo sapiens, UniProt Q8NER1)
Assay: Capsaicin receptor binding assay ([3H]RTX competition, VR1-transfected HEK293 membranes)

Chain of human capsaicin receptor (VR1) (Q8NER1 whole entry): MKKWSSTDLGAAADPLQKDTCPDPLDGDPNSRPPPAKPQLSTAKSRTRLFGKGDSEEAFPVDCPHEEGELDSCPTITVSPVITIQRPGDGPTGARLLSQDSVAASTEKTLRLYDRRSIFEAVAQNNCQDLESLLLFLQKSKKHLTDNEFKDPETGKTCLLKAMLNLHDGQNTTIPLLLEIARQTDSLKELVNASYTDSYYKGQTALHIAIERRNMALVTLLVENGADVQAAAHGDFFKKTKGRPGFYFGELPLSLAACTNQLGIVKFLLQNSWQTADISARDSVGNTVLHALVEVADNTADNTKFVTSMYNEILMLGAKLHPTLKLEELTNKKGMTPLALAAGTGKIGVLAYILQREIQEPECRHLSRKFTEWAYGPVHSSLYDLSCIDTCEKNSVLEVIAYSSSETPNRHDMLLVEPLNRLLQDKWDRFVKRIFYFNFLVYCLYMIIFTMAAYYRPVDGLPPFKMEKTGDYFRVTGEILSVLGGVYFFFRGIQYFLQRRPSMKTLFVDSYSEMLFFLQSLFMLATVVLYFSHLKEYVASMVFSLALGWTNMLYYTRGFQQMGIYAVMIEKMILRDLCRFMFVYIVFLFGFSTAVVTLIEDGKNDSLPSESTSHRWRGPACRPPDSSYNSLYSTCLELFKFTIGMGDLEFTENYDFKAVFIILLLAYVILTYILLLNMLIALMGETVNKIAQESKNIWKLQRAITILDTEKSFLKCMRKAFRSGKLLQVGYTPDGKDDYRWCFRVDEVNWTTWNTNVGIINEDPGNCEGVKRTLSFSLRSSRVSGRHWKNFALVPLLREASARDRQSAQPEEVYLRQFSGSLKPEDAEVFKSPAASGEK

Ki [nM] | Ki (Table III, capsaicin receptor binding) [nM] | Compound
< 1000 | – | CCOCCNC(=O)c1nc(Nc2ccc(C(F)(F)F)cc2)c2ccc(-c3ncccc3C(F)(F)F)nc2n1 [Compound 454, 4-(4-Trifluoromethyl-phenylamino)-7-(3-trifluoromethyl-pyridin-2-yl)-pyrido[2,3-d]pyrimidine-2-carboxylic acid (2-ethoxy-ethyl)-amide]
< 1000 | – | C[C@@H]1CN(Cc2nc(Nc3ccc(C#N)cc3)c3ccc(-c4ncccc4Cl)cc3n2)C[C@@H](C)O1 [Compound 630, (R,R)-4-[7-(3-Chloro-pyridin-2-yl)-2-(2,6-dimethyl-morpholin-4-ylmethyl)-quinazolin-4-ylamino]-benzonitrile]
< 1000 | – | CCCOCc1cc(Nc2ccc(C(F)(F)F)cc2)c2ccc(-c3ncccc3C(F)(F)F)nc2n1 [Compound 313, [2-Propoxymethyl-7-(3-trifluoromethyl-pyridin-2-yl)-[1,8]naphthyridin-4-yl]-(4-trifluoromethyl-phenyl)-amine]
< 1000 | – | COCc1nc(Nc2ccc(C(C)C)cc2)c2ccc(-c3ncccc3Cl)nc2n1 [Compound 60, [7-(3-Chloro-pyridin-2-yl)-2-methoxymethyl-pyrido[2,3-d]pyrimidin-4-yl]-(4-isopropyl-phenyl)-amine]
< 1000 | – | OCCC1CCN(Cc2nc(Nc3ccc(C(F)(F)F)nc3)c3ccc(-c4ncccc4C(F)(F)F)cc3n2)CC1 [Compound 481, 2-{1-[7-(3-Trifluoromethyl-pyridin-2-yl)-4-(6-trifluoromethyl-pyridin-3-ylamino)-quinazolin-2-ylmethyl]-piperidin-4-yl}-ethanol]
< 1000 | – | OCc1nc(Nc2ccc(C(F)(F)F)cc2)c2ccc(-c3ncccc3C(F)(F)F)nc2n1 [Compound 171, [4-(4-Trifluoromethyl-phenylamino)-7-(3-trifluoromethyl-pyridin-2-yl)-pyrido[2,3-d]pyrimidin-2-yl]-methanol]
< 1000 | – | Cc1cccnc1-c1ccc2c(Nc3ccc(C(C)C)cc3)nc(CN(C)C)nc2c1 [Compound 711, [2-Dimethylaminomethyl-7-(3-methyl-pyridin-2-yl)-quinazolin-4-yl]-(4-isopropyl-phenyl)-amine]
< 1000 | – | CN1CCN(C(=O)c2nc(Nc3ccc(C(F)(F)F)cc3)c3ccc(-c4ncccc4C(F)(F)F)nc3n2)CC1 [Compound 472, (4-Methyl-piperazin-1-yl)-[4-(4-trifluoromethyl-phenylamino)-7-(3-trifluoromethyl-pyridin-2-yl)-pyrido[2,3-d]pyrimidin-2-yl]-methanone]
< 1000 | – | CCCCCCN(CCCCCC)Cc1nc(Nc2ccc(C(F)(F)F)cc2)c2ccc(-c3ncccc3C(F)(F)F)cc2n1 [Compound 346, [2-Dihexylaminomethyl-7-(3-trifluoromethyl-pyridin-2-yl)-quinazolin-4-yl]-(4-trifluoromethyl-phenyl)-amine]
< 1000 | – | CCCN(C)Cc1nc(Nc2ccc(C(C)C)cc2)c2ccc(-c3ncccc3C)cc2n1 [Compound 716, (4-Isopropyl-phenyl)-[2-[(methyl-propyl-amino)-methyl]-7-(3-methyl-pyridin-2-yl)-quinazolin-4-yl]-amine]
< 1000 | – | CCOC(=O)c1nc(Nc2ccc(C(F)(F)F)cc2)c2ccc(-c3ncccc3C(F)(F)F)cc2n1 [Compound 99, 4-(4-Trifluoromethyl-phenylamino)-7-(3-trifluoromethyl-pyridin-2-yl)-quinazoline-2-carboxylic acid ethyl ester]

The next lines start with the compound.

Compound | Ki [nM] | Ki (Table III, capsaicin receptor binding) [nM]
FC(F)(F)Oc1ccc(Nc2nc(COCc3ccccc3)nc3cc(-c4ncccc4C(F)(F)F)ccc23)cc1 [Compound 27, [2-Benzyloxymethyl-7-(3-trifluoromethyl-pyridin-2-yl)-quinazolin-4-yl]-(4-trifluoromethoxy-phenyl)-amine] | < 1000 | –
CC(C)COCc1nc(Nc2ccc(F)c(Cl)c2)c2ccc(-c3ncccc3C(F)(F)F)nc2n1 [Compound 275, (3-Chloro-4-fluoro-phenyl)-[2-isobutoxymethyl-7-(3-trifluoromethyl-pyridin-2-yl)-pyrido[2,3-d]pyrimidin-4-yl]-amine] | < 1000 | –
CCC(C)c1ccc(Nc2nc(COC)nc3nc(-c4ncccc4C(F)(F)F)ccc23)cc1 (centres unmarked) [Compound 93, (4-sec-Butyl-phenyl)-[2-methoxymethyl-7-(3-trifluoromethyl-pyridin-2-yl)-pyrido[2,3-d]pyrimidin-4-yl]-amine] | < 1000 | –
CC(C)N1CCN(C(=O)c2nc(Nc3ccc(C(F)(F)F)cc3)c3ccc(-c4ncccc4C(F)(F)F)nc3n2)CC1 [Compound 471, (4-Isopropyl-piperazin-1-yl)-[4-(4-trifluoromethyl-phenylamino)-7-(3-trifluoromethyl-pyridin-2-yl)-pyrido[2,3-d]pyrimidin-2-yl]-methanone] | < 1000 | –
O=C(O)[C@@H]1CCCN1Cc1nc(Nc2ccc(C(F)(F)F)cc2)c2ccc(-c3ncccc3C(F)(F)F)nc2n1 [Compound 751, (S)-1-[4-(4-Trifluoromethyl-phenylamino)-7-(3-trifluoromethyl-pyridin-2-yl)-pyrido[2,3-d]pyrimidin-2-ylmethyl]-pyrrolidine-2-carboxylic acid] | < 1000 | –
Cc1ccccc1CN(C)CCc1nc(Nc2ccc(C(F)(F)F)cc2)c2ccc(-c3ncccc3C(F)(F)F)cc2n1 [Compound 395, [2-{2-[Methyl-(2-methyl-benzyl)-amino]-ethyl}-7-(3-trifluoromethyl-pyridin-2-yl)-quinazolin-4-yl]-(4-trifluoromethyl-phenyl)-amine] | < 1000 | –
CCCN(CCC)Cc1nc(Nc2ccc(C(F)(F)F)nc2)c2ccc(-c3ncccc3C(F)(F)F)cc2n1 [Compound 373, [2-Dipropylaminomethyl-7-(3-trifluoromethyl-pyridin-2-yl)-quinazolin-4-yl]-(6-trifluoromethyl-pyridin-3-yl)-amine] | < 1000 | –
CCOCc1nc(Nc2ccc(S(=O)(=O)N3CCOCC3)cc2)c2ccc(-c3ncccc3C(F)(F)F)cc2n1 [Compound 127, [2-Ethoxymethyl-7-(3-trifluoromethyl-pyridin-2-yl)-quinazolin-4-yl]-[4-(morpholine-4-sulfonyl)-phenyl]-amine] | < 1000 | –
CS(=O)(=O)c1ccc(Nc2nc(COCc3ccccc3)nc3cc(-c4ncccc4C(F)(F)F)ccc23)cc1 [Compound 40, [2-Benzyloxymethyl-7-(3-trifluoromethyl-pyridin-2-yl)-quinazolin-4-yl]-(4-methanesulfonyl-phenyl)-amine] | < 1000 | –
Cc1cccnc1-c1ccc2c(Nc3ccc(C(F)(F)F)cc3)nc(CN3C[C@@H](C)O[C@@H](C)C3)nc2n1 [Compound 738, [2-(2,6-Dimethyl-morpholin-4-ylmethyl)-7-(3-methyl-pyridin-2-yl)-pyrido[2,3-d]pyrimidin-4-yl]-(4-trifluoromethyl-phenyl)-amine (cis)] | < 1000 | –
[2-(2,6-Dimethyl- morpholin-4-ylmethyl)-7- (3-trifluoromethyl-pyridin- 2-yl)-pyrido[3,2- d]pyrimidin-4-yl]-(4- methanesulfonyl-phenyl)- amine (cis) [Compound 584] | – | < 1000
CCOC(=O)Cc1ccc(Nc2nc(COCC(C)C)nc3nc(-c4ncccc4Cl)ccc23)cc1 [Compound 283, {4-[7-(3-Chloro-pyridin-2-yl)-2-isobutoxymethyl-pyrido[2,3-d]pyrimidin-4-ylamino]-phenyl}-acetic acid ethyl ester] | < 1000 | –
